According to patent US9303035B2, “Substituted pyrazino[1′,2′:1,2]pyrrolo[3,4-d]pyrimidines, pyrimido[4′,5′:3,4]pyrrolo[2,1-c][1,4]oxazines and pyrimido[4′,5′:3,4]pyrrolo[1,2-d][1,4]oxazepines for inhibiting the CFTR channel” (Novartis AG, priority 2012, dated 2016):

Target: CFTR (WT-CFTR channels stably expressed in CHO cells) (Homo sapiens (Human), UniProt P13569)
Assay: IonWorks Quattro CFTR inhibitor assay (whole-cell population patch clamp, forskolin-activated current)
Type: cell-based
Conditions: inward current (−100 mV); CHO cells stably expressing WT-CFTR; CFTR activated with 10 μM forskolin; 10 min compound incubation
From the text: CFTR activity can be quantified by electrophysiology methods, using the whole-cell configuration of the patch clamp technique (Hamill O, Marty A, Neher E, Sakmann B and Sigworth F. ‘Improved patch-clamp techniques for high resolution current recording from cells and cell-free membrane patches.’ Pflugers Archive 1981 391: 85-100). This assay directly measures the currents associated with chloride flow through CFTR channels whilst either maintaining or adjusting the transmembrane voltage. This assay can use either single glass micropipettes or parallel planar arrays to measure CFTR activity from native or recombinant cell systems. Currents measured using parallel planar arrays can be quantified using an appropriately equipped instrument such as the IonWorks Quattro (Molecular Devices Corporation, Sunnyvale, Calif.). The Quattro system can measure CFTR currents from either a single cell per recording well (HT configuration) or alternatively from a population of 64 cells per well (Population Patch Clamp PPC) (Finkel A, Wittel A, Yang N, Handran S, Hughes J, Costantin J. ‘Population patch clamp improves data consistency and success rates in the measurement of ionic currents.’ J Biomol Screen. 2006 August; 11(5):488-96).
Chinese hamster ovary (CHO) cells stably expressing WT-CFTR channels were used for the IonWorks Quattro experiments. Cells were maintained at 37° C. in 5% v/v CO2 at 100% humidity in MEM alpha medium supplemented with 10% (v/v) FCS, 100 U/mL Penicillin/Streptomycin, and 100 μg/L methotrexate. For experiments, cells were grown in 225 cm^2 tissue culture flasks until almost confluent. Cells were removed from the flask using trypsin-EDTA and resuspended in extracellular recording solution for immediate experimentation.
Cells, at a density of 1.5-2 million per mL, were placed on the Quattro system, added to the planar patch plate and seals allowed to establish for 5-10 mins. After assessing seal resistances (typically >50 MΩ), whole-cell access was obtained by perforation with 100 μg/mL amphotericin B. Baseline currents were measured by a pre-compound scan obtained by application of a voltage ramp from −100 to +100 mV. CFTR was activated by the addition of 10 μM forskolin to each of the 384 wells of the patch plate. After 5 min incubation the post-compound 1 currents were measured, again by application of a voltage ramp from −100 to +100 mV. Test compounds, diluted from 10 mM stocks in DMSO in extracellular solution were then added to the patch plate and were incubated for a further 10 min. The post-compound 2 currents were measured by the application of the same voltage ramp from −100 to +100 mV. The inhibition of CFTR was determined from the difference in current between the forskolin addition (post-compound 1) and the test compound (post-compound 2). This was determined at both −100 mV and +100 mV which represents the inward and outward current respectively.
Extracellular solution (ECS): 145 mM NaCl, 4 mM CsCl, 5 mM D-glucose, 10 mM TES, 1 mM CaCl2, 1 mM MgCl2, pH 7.4 NaOH
Intracellular solution (ICS): 113 mM L-Aspartic acid, 113 mM CsOH, 27 mM CsCl, 1 mM NaCl, 1 mM MgCl2, 1 mM EGTA, 10 mM TES. pH 7.2 with CsOH. Filter sterilized before use.

CFTR (WT-CFTR channels stably expressed in CHO cells), sequence (P13569 whole entry): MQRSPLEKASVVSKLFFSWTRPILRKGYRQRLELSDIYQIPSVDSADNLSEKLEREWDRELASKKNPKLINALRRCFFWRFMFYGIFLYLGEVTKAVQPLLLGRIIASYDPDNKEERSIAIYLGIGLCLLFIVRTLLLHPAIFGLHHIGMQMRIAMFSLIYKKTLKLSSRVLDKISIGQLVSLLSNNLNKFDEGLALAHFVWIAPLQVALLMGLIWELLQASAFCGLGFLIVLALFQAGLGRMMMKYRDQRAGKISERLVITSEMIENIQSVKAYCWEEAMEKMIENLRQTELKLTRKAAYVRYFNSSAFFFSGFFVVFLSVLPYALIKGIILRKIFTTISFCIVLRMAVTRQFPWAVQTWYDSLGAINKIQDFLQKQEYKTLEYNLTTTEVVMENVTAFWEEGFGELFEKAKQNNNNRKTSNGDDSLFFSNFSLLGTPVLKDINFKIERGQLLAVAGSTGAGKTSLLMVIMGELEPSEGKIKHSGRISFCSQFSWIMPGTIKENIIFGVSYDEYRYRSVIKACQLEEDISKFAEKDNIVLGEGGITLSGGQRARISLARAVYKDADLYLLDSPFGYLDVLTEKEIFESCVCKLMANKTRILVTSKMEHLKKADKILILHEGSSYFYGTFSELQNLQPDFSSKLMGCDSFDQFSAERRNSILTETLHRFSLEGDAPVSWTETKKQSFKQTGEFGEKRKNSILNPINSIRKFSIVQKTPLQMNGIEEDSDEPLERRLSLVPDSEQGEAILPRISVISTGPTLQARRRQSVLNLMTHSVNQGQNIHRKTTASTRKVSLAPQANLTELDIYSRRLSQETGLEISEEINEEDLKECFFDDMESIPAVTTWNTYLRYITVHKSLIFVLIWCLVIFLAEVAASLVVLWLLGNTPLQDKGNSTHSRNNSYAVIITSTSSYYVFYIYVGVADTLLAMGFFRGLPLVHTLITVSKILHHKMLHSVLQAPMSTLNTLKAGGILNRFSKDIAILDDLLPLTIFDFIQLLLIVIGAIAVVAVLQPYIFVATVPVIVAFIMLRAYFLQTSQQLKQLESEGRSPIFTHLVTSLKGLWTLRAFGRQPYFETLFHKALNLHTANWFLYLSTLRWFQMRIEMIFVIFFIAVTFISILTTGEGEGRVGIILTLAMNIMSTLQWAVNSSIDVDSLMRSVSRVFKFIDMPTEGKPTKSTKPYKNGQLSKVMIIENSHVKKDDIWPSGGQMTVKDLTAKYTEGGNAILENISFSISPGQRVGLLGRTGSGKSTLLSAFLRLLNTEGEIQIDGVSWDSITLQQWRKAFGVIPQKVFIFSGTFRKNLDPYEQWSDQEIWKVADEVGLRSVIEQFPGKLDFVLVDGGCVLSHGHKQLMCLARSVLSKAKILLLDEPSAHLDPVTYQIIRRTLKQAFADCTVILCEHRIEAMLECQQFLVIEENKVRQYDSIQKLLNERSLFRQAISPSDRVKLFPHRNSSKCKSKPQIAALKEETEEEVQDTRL

Compound | IC50 [µM]
Cn1c(=O)c2c(-c3ccccc3)n3c(c2n(C)c1=O)C(c1cccc(F)c1F)NCC3 (centres unmarked) [Example 1.14, 10-(2,3-Difluorophenyl)-1,3-dimethyl-5-phenyl-7,8,9,10-tetrahydropyrazino[1′,2′:1,2]pyrrolo[3,4-d]pyrimidine-2,4(1H,3H)-dione] | 11.5
Cn1c(=O)c2c(-c3ccccc3)n3c(c2n(C)c1=O)C(C1CC=CCC1)NCC3 (centres unmarked) [Example 1.17, 10-(Cyclohex-3-en-1-yl)-1,3-dimethyl-5-phenyl-7,8,9,10-tetrahydropyrazino[1′,2′:1,2]pyrrolo[3,4-d]pyrimidine-2,4(1H,3H)-dione] | 18.1
Cn1c(=O)c2c(-c3ccccc3)n3c(c2n(C)c1=O)C(c1ccc(Cl)cc1)NCC3 (centres unmarked) [Example 1.23, 10-(4-Chlorophenyl)-1,3-dimethyl-5-phenyl-7,8,9,10-tetrahydropyrazino[1′,2′:1,2]pyrrolo[3,4-d]pyrimidine-2,4(1H,3H)-dione] | 29.9
Cc1csc(-c2c3c(=O)n(C)c(=O)n(C)c3c3n2CCNC3c2ccc(Cl)o2)n1 (centres unmarked) [Example 1.26, 10-(5-Chlorofuran-2-yl)-1,3-dimethyl-5-(4-methylthiazol-2-yl)-7,8,9,10-tetrahydropyrazino[1′,2′:1,2]pyrrolo[3,4-d]pyrimidine-2,4(1H,3H)-dione] | 1.9
Cn1c(=O)c2c(-c3cccc(F)c3)n3c(c2n(C)c1=O)[C@H](c1ccc(Cl)o1)O[C@@H](CO)C3 [Example 6, (8R,10R)-10-(5-Chlorofuran-2-yl)-5-(3-fluorophenyl)-8-(hydroxymethyl)-1,3-dimethyl-7,8-dihydro-1H-pyrimido[4′,5′:3,4]pyrrolo[2,1-c][1,4]oxazine-2,4(3H,10H)-dione] | 0.05
Cc1csc([C@H]2O[C@@H](C)Cn3c(-c4ccccc4)c4c(=O)n(C)c(=O)n(C)c4c32)n1 [Example 12, (8S)-1,3,8-trimethyl-10-(4-methylthiazol-2-yl)-5-phenyl-7,8-dihydro-1H-pyrimido[4′,5′:3,4]pyrrolo[2,1-c][1,4]oxazine-2,4(3H,10H)-dione] | 0.6
Cn1c(=O)c2c(-c3ccccc3)n3c(c2n(C)c1=O)[C@H](c1nc(Cl)cs1)COCC3 [Example 13, 11-(4-chlorothiazol-2-yl)-1,3-dimethyl-5-phenyl-7,8,10,11-tetrahydropyrimido[4′,5′:3,4]pyrrolo[1,2-d][1,4]oxazepine-2,4(1H,3H)-dione] | 3.53
Cn1c(=O)c2c(-c3cccc(C#N)c3)n3c(c2n(C)c1=O)[C@H](c1nc(Cl)cs1)CO[C@H](CO)C3 [Example 14, 3-(11-(4-chlorothiazol-2-yl)-8-(hydroxymethyl)-1,3-dimethyl-2,4-dioxo-1,2,3,4,7,8,10,11-octahydropyrimido[4′,5′:3,4]pyrrolo[1,2-d][1,4]oxazepin-5-yl)benzonitrile] | 1.96

Continued, values first:

IC50 [µM] | Compound
0.7 | Cn1c(=O)c2c(-c3cccc(Cl)c3)n3c(c2n(C)c1=O)C(c1ccc(Cl)o1)NCC3 (centres unmarked) [Example 3.1, 10-(5-Chlorofuran-2-yl)-5-(3-chlorophenyl)-1,3-dimethyl-7,8,9,10-tetrahydropyrazino[1′,2′:1,2]pyrrolo[3,4-d]pyrimidine-2,4(1H,3H)-dione]
0.64 | Cc1csc(C2NCCn3c(-c4cccc(Cl)c4)c4c(=O)n(C)c(=O)n(C)c4c32)n1 (centres unmarked) [Example 3.2, 5-(3-Chlorophenyl)-1,3-dimethyl-10-(4-methylthiazol-2-yl)-7,8,9,10-tetrahydropyrazino[1′,2′:1,2]pyrrolo[3,4-d]pyrimidine-2,4(1H,3H)-dione]
8.26 | Cc1cc(C)cc(-c2c3c(=O)n(C)c(=O)n(C)c3c3n2CCNC3c2ccc(Cl)o2)c1 (centres unmarked) [Example 3.6, 10-(5-Chlorofuran-2-yl)-5-(3,5-dimethylphenyl)-1,3-dimethyl-7,8,9,10-tetrahydropyrazino[1′,2′:1,2]pyrrolo[3,4-d]pyrimidine-2,4(1H,3H)-dione]
3.24 | Cc1csc(C2OC[C@@H](C)n3c(-c4ccccc4)c4c(=O)n(C)c(=O)n(C)c4c32)n1 (stereo partly drawn) [Example 5.1, (7R)-1,3,7-trimethyl-10-(4-methylthiazol-2-yl)-5-phenyl-7,8-dihydro-1H-pyrimido[4′,5′:3,4]pyrrolo[2,1-c][1,4]oxazine-2,4(3H,10H)-dione]
0.31 | Cn1c(=O)c2c(-c3ccccc3)n3c(c2n(C)c1=O)[C@H](c1ccc(Cl)o1)N[C@@H](CO)C3 [Example 11a, 10-(5-Chlorofuran-2-yl)-8-(hydroxymethyl)-1,3-dimethyl-5-phenyl-7,8,9,10-tetrahydropyrazino[1′,2′:1,2]pyrrolo[3,4-d]pyrimidine-2,4(1H,3H)-dione]
0.62 | Cn1c(=O)c2c(-c3ccccc3)n3c(c2n(C)c1=O)C(c1ccc(Cl)o1)OC(C)(C)C3 (centres unmarked) [Example 12.5, 10-(5-Chlorofuran-2-yl)-1,3,8,8-tetramethyl-5-phenyl-7,8-dihydro-1H-pyrimido[4′,5′:3,4]pyrrolo[2,1-c][1,4]oxazine-2,4(3H,10H)-dione]
